Measured values taken from patent publication US20240307350A1, “5-METHOXY-N,N-DIMETHYLTRYPTAMINE (5-MEO-DMT) FOR TREATING DEPRESSION” (GH RESEARCH IRELAND LIMITED, priority 2019, published 2024).

Tests used:
healthy volunteers [1] = experiment: Clinical trial in healthy volunteers: intensity of the psychedelic effects (PPEQ); format: in vivo, human; conditions: for PPEQ Intensity (0-100) / PPEQ Loss of Control (0-100) / PPEQ Profoundness (0-100) / PPEQ Total Score (0-100): group average
Method: (§1) A clinical trial was performed in which 5-MeO-DMT free base (purity not less than 99%) at different dose levels was administered via inhalation (as described in Example 1) in a single day to healthy volunteers who had prior experiences with the use of synthetic or naturally-occurring psychedelics. The trial was reviewed and approved by the relevant national competent authority and local medical ethics committee. The trial consisted of two parts: Part A, where single doses of 5-MeO-DMT dosage amounts of 2 mg, 6 mg, 12 mg and 18 mg were administered; and Part B, where an initial 5-MeO-DMT dosage amount of 6 mg was administered, and then, unless the participant had already experienced a peak psychedelic experience based on the PPEQ or the supervising physician had decided that further dose increases were inappropriate based on observed side effects, further subsequent dosage amounts of 12 mg and 18 mg were administered with about 3 hours in between each administration. Participants in Part A only received one dose and were not allowed to receive higher doses in later parts of Part A and were not allowed to participate in Part B. Participants were closely monitored for 3.5 hours after the last dose, with additional follow-up visits 1 day and 7 days after dosing. Various safety related measures (e.g., adverse event reporting, safety laboratory analyses, vital signs, ECG, CADSS, PVT, DSST, Prospective Memory Task (PMT)) as well as measures of the intensity of the psychedelic effects (MEQ30, ASC, PPEQ, subjective description of the psychedelic experience) were recorded. Pharmacokinetic analysis of 5-MeO-DMT and bufotenine plasma levels was performed at 1 hour and 3 hours after drug administration in Part A, and at 3 hours after drug administration in Part B.
(§2) 18 participants were recruited into Part A of the study and 4 participants were recruited into Part B. 9 Participants were female and 13 participants were male. Median age was 29 years (range: 19 to 42 years). In Part A, 4 participants received 2 mg, 6 participants received 6 mg, 4 participants received 12 mg and 4 participants received 18 mg of 5-MeO-DMT. In Part B, 1 participant received 6 mg, 2 participants received 6 mg and then 12 mg and one participant received 6 mg, 12 mg and then 18 mg of 5-MeO-DMT.
The Peak Psychedelic Experience Questionnaire (PPEQ) has been developed by the inventor as an improved alternative to the oceanic boundlessness dimension of the ASC and the MEQ30 to allow a simpler and quicker assessment of the intensity of a psychedelic experience. The PPEQ is comprised of three questions, all to be scored from 0 to 100 by marking a Visual Analogue Scale between 0 and 100 mm: • 1. How intense was the experience? • 2. To what extent did you lose control? • 3. How profound (i.e., deep and significant) was the experience?
The PPEQ Total Score is the average of the scores of the three questions. A “peak psychedelic experience” is identified through achievement of a PPEQ Total Score of at least 75. A statistically significant correlation between the PPEQ Total Score and the oceanic boundlessness dimension of the ASC, respectively the MEQ30 Total Score, has been observed in the data set described in Example 3.

healthy volunteers [2] = experiment: Clinical trial of inhaled 5-MeO-DMT in healthy volunteers: safety and tolerability; format: in vivo, human
Method: as §1, §2

[3] = Part B max. dose (n = 4), highest dose for each participant (6, 12 or 18 mg)
[4] = Part A, 2 mg (n = 4), Administration day, mild
[5] = Part A, 6 mg (n = 6), Administration day, mild
[6] = Part A, 6 mg (n = 6), Day 1, mild
[7] = Part A, 18 mg (n = 4), Administration day, mild
[8] = Part A, 18 mg (n = 4), Day 1, mild
[9] = Part B, 12 mg (n = 3), after 6 mg, Administration day, mild

Q: For `COc1ccc2[nH]cc(CCN(C)C)c2c1` [5-MeO-DMT, 5-methoxy-N,N-dimethyltryptamine], which “PPE achieved (fraction of participants who achieved a PPEQ Total Score of at least 75)” value (healthy volunteers [1]; Part A 2 mg (n = 4)) is on record?
A: 0/4

Q: And the “PPEQ Intensity (0-100)” value (healthy volunteers [1]; Part A 2 mg (n = 4))?
A: 16

Q: What about the “PPEQ Loss of Control (0-100)” value (healthy volunteers [1]; Part A 2 mg (n = 4)) of the same molecule?
A: 4

Q: And the “PPEQ Profoundness (0-100)” value (healthy volunteers [1]; Part A 2 mg (n = 4))?
A: 7

Q: What about the “PPEQ Total Score (0-100)” value (healthy volunteers [1]; Part A 2 mg (n = 4)) of the same molecule?
A: 9.0

Q: And the “PPE achieved (fraction of participants who achieved a PPEQ Total Score of at least 75)” value (healthy volunteers [1]; Part A 6 mg (n = 6))?
A: 1/6

Q: What about the “PPEQ Intensity (0-100)” value (healthy volunteers [1]; Part A 6 mg (n = 6)) of the same molecule?
A: 53

Q: What about the “PPEQ Loss of Control (0-100)” value (healthy volunteers [1]; Part A 6 mg (n = 6)) of the same molecule?
A: 37

Q: What about the “PPEQ Profoundness (0-100)” value (healthy volunteers [1]; Part A 6 mg (n = 6)) of the same molecule?
A: 42

Q: And the “PPEQ Total Score (0-100)” value (healthy volunteers [1]; Part A 6 mg (n = 6))?
A: 43.8

Q: What about the “PPE achieved (fraction of participants who achieved a PPEQ Total Score of at least 75)” value (healthy volunteers [1]; Part A 12 mg (n = 4)) of the same molecule?
A: 2/4

Q: What about the “PPEQ Intensity (0-100)” value (healthy volunteers [1]; Part A 12 mg (n = 4)) of the same molecule?
A: 78

Q: What about the “PPEQ Loss of Control (0-100)” value (healthy volunteers [1]; Part A 12 mg (n = 4)) of the same molecule?
A: 69

Q: What about the “PPEQ Profoundness (0-100)” value (healthy volunteers [1]; Part A 12 mg (n = 4)) of the same molecule?
A: 51

Q: What about the “PPEQ Total Score (0-100)” value (healthy volunteers [1]; Part A 12 mg (n = 4)) of the same molecule?
A: 65.5

Q: What about the “PPE achieved (fraction of participants who achieved a PPEQ Total Score of at least 75)” value (healthy volunteers [1]; Part A 18 mg (n = 4)) of the same molecule?
A: 1/4

Q: What about the “PPEQ Intensity (0-100)” value (healthy volunteers [1]; Part A 18 mg (n = 4)) of the same molecule?
A: 62

Q: What about the “PPEQ Loss of Control (0-100)” value (healthy volunteers [1]; Part A 18 mg (n = 4)) of the same molecule?
A: 80

Q: What about the “PPEQ Profoundness (0-100)” value (healthy volunteers [1]; Part A 18 mg (n = 4)) of the same molecule?
A: 36

Q: And the “PPEQ Total Score (0-100)” value (healthy volunteers [1]; Part A 18 mg (n = 4))?
A: 59.2

Q: And the “PPE achieved (fraction of participants who achieved a PPEQ Total Score of at least 75)” value (healthy volunteers [1]; [3])?
A: 4/4

Q: And the “PPEQ Intensity (0-100)” value (healthy volunteers [1]; [3])?
A: 97

Q: And the “PPEQ Loss of Control (0-100)” value (healthy volunteers [1]; [3])?
A: 94

Q: And the “PPEQ Profoundness (0-100)” value (healthy volunteers [1]; [3])?
A: 78

Q: What about the “PPEQ Total Score (0-100)” value (healthy volunteers [1]; [3]) of the same molecule?
A: 89.3

Q: What about the “first psychedelic symptoms after the inhalation (onset)” value (healthy volunteers [1]; all participants, 2 mg to 18 mg via inhalation) of the same molecule?
A: within a few seconds

Q: And the “ECG, safety laboratory analyses, CADSS and cognitive tests (PVT, DSST, PMT)” value (healthy volunteers [2]; 2 mg to 18 mg via inhalation)?
A: unremarkable

Q: What about the inhalation-related adverse events (healthy volunteers [2]; Part A and Part B, 2 mg to 18 mg via inhalation) of the same molecule?
A: No inhalation-related adverse events

Q: What about the “Adverse events reported: Nausea (number of volunteers)” value (“Adverse events reported: Nausea” for short) (healthy volunteers [2]; [4]) of the same molecule?
A: 2

Q: What about the “Adverse events reported: Tachycardia (number of volunteers)” value (healthy volunteers [2]; [4]) of the same molecule?
A: 1

Q: What about the “Adverse events reported: Vision blurred (number of volunteers)” value (healthy volunteers [2]; [4]) of the same molecule?
A: 1

Q: And the “Adverse events reported: Anxiety (number of volunteers)” value (healthy volunteers [2]; [5])?
A: 1

Q: What about the “Adverse events reported: Headache (number of volunteers)” value (from here on “Adverse events reported: Headache”) (healthy volunteers [2]; [5]) of the same molecule?
A: 1

Q: And the “Adverse events reported: Nausea” value (healthy volunteers [2]; [5])?
A: 1

Q: What about the “Adverse events reported: Clumsiness (number of volunteers)” value (healthy volunteers [2]; [6]) of the same molecule?
A: 1

Q: What about the “Adverse events reported: Feeling hot (number of volunteers)” value (healthy volunteers [2]; [6]) of the same molecule?
A: 1

Q: What about the “Adverse events reported: Headache” value (healthy volunteers [2]; [6]) of the same molecule?
A: 1

Q: And the “Adverse events reported: Anxiety (number of volunteers)” value (healthy volunteers [2]; Part A, 12 mg (n = 4), Administration day, mild)?
A: 1

Q: What about the “Adverse events reported: Heart rate increased (number of volunteers)” value (healthy volunteers [2]; Part A, 12 mg (n = 4), Administration day, this event was moderate) of the same molecule?
A: 1^1

Q: And the “Adverse events reported: Headache” value (healthy volunteers [2]; [7])?
A: 1

Q: And the “Adverse events reported: Nausea” value (healthy volunteers [2]; [7])?
A: 1

Q: And the “Adverse events reported: Abnormal dreams (number of volunteers)” value (healthy volunteers [2]; [8])?
A: 1

Q: What about the “Adverse events reported: Fatigue (number of volunteers)” value (healthy volunteers [2]; [8]) of the same molecule?
A: 1

Q: And the “Adverse events reported: Hallucination (number of volunteers)” value (healthy volunteers [2]; [8])?
A: 1

Q: And the “Adverse events reported: Hyperacusis (number of volunteers)” value (healthy volunteers [2]; [8])?
A: 1

Q: And the “Adverse events reported: Insomnia (number of volunteers)” value (healthy volunteers [2]; [8])?
A: 1

Q: And the “Adverse events reported: Mental fatigue (number of volunteers)” value (healthy volunteers [2]; [8])?
A: 1

Q: And the “Adverse events reported: Flashback (number of volunteers)” value (healthy volunteers [2]; Part A, 18 mg (n = 4), Day 7, mild)?
A: 1

Q: What about the “Adverse events reported: Nausea” value (healthy volunteers [2]; Part B, 6 mg (n = 4), Administration day, mild) of the same molecule?
A: 1

Q: What about the “Adverse events reported: Fatigue (number of volunteers)” value (healthy volunteers [2]; [9]) of the same molecule?
A: 1

Q: What about the “Adverse events reported: Head discomfort (number of volunteers)” value (healthy volunteers [2]; [9]) of the same molecule?
A: 1

Q: And the “Adverse events reported: Headache” value (healthy volunteers [2]; [9])?
A: 1

Q: What about the “Adverse events reported: Nausea” value (healthy volunteers [2]; [9]) of the same molecule?
A: 1

Q: What about the Adverse events reported (healthy volunteers [2]; Part B, 18 mg (n = 1), after 12 mg and 6 mg) of the same molecule?
A: None reported

Q: And the “changes in vital parameters” value (healthy volunteers [2]; shortly after administration, 2 mg to 18 mg via inhalation)?
A: temporary, not clinically relevant increase in heart rate and blood pressure
